Laboratory results reported in ChEMBL document CHEMBL1201862, “PubChem BioAssay data set” (2004).
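96-well plates; 48 h exposure; 5 concentrations. Endpoints by linear interpolation between flanking doses. Not reached: highest tested concentration assigned. GI50 is the concentration that inhibits growth by half.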 Activity calls are given as the source filed them. Cut-off read from the data, not from the text of the source: active = GI50 up to about 1.1 µM and inactive = higher.

How the values were obtained:
Experiment in all cases: growth of human tumour cells (NCI), 48 h
[1] = system: CAKI-1
[2] = system: HCC 2998
[3] = system: HOP-92
[4] = system: HT-29
[5] = system: OVCAR-4
[6] = system: RPMI-8226
[7] = system: SK-MEL-28
[8] = system: SK-MEL-5
[9] = system: SR
[10] = system: U-251
[11] = system: UACC-257
[12] = system: OVCAR-3
[13] = system: OVCAR-5
[14] = system: OVCAR-8
[15] = system: SF-539
[16] = system: UACC-62
[17] = system: UO-31

SMILES	GI50 [1]	GI50 [2]	GI50 [3]	GI50 [4]	GI50 [5]	GI50 [6]	GI50 [7]	GI50 [8]	GI50 [9]	GI50 [10]	GI50 [11]	GI50 [12]	GI50 [13]	GI50 [14]	GI50 [15]	GI50 [16]	GI50 [17]
O=C(N/N=C/c1cccc(F)c1)c1ccncc1	> 10 µM (inactive)	> 100 µM (inactive)	> 100 µM (inactive)	> 100 µM (inactive)	> 10 µM (inactive)	> 100 µM (inactive)	> 100 µM (inactive)	> 100 µM (inactive)	> 100 µM (inactive)	> 100 µM (inactive)	> 100 µM (inactive)						
O=C(Nc1cc(Cl)c(Cl)cc1Cl)C(=O)C(C(=O)c1ccc(Cl)c(Cl)c1)C1OC(=O)c2ccccc21 (stereo unspecified)	16.1 µM (inactive)	18.8 µM (inactive)	11 µM (inactive)	18.5 µM (inactive)	22.9 µM (inactive)	15.6 µM (inactive)			4.39 µM (inactive)	15.3 µM (inactive)	13.9 µM (inactive)	13.7 µM (inactive)	11.1 µM (inactive)	10.7 µM (inactive)	2.67 µM (inactive)	16.1 µM (inactive)	16.8 µM (inactive)
O=C(NC1CC1)c1c(O)[nH]c(=S)[nH]c1=O	> 100 µM (inactive)		> 100 µM (inactive)	> 100 µM (inactive)	> 100 µM (inactive)	> 100 µM (inactive)	> 100 µM (inactive)	> 100 µM (inactive)	> 100 µM (inactive)	> 100 µM (inactive)	> 100 µM (inactive)	> 100 µM (inactive)	> 100 µM (inactive)	> 100 µM (inactive)	> 100 µM (inactive)	> 100 µM (inactive)	> 100 µM (inactive)
Nc1nc(Cl)cc(NCC(O)CO)n1 (stereo unspecified)		> 100 µM (inactive)	> 100 µM (inactive)	> 100 µM (inactive)	> 100 µM (inactive)	> 100 µM (inactive)	> 100 µM (inactive)	> 100 µM (inactive)	> 100 µM (inactive)	> 100 µM (inactive)	> 100 µM (inactive)	> 100 µM (inactive)	> 100 µM (inactive)	> 100 µM (inactive)	> 100 µM (inactive)	> 100 µM (inactive)	> 100 µM (inactive)
COc1ccc(-c2cc(=O)c3cc(C)c(C)c(C(=O)O)c3o2)cc1	> 100 µM (inactive)	> 100 µM (inactive)	< 0.01 µM (active)	> 100 µM (inactive)	> 100 µM (inactive)	> 100 µM (inactive)	> 100 µM (inactive)		> 100 µM (inactive)	> 100 µM (inactive)	> 100 µM (inactive)	> 100 µM (inactive)		> 100 µM (inactive)	> 100 µM (inactive)	13.6 µM (inactive)	> 100 µM (inactive)
COC1CC(O)C(OC(=O)c2ccccc2)C(C)O1 (stereo unspecified)	> 100 µM (inactive)	> 100 µM (inactive)	> 100 µM (inactive)	> 100 µM (inactive)	> 100 µM (inactive)	> 100 µM (inactive)	> 100 µM (inactive)	> 100 µM (inactive)	> 100 µM (inactive)	> 100 µM (inactive)	> 10 µM (inactive)	> 100 µM (inactive)	> 100 µM (inactive)	> 100 µM (inactive)	> 100 µM (inactive)	> 100 µM (inactive)	
CCN(CC)CCCNC(=O)c1ccc([N+](=O)[O-])cc1O	> 100 µM (inactive)	> 100 µM (inactive)	> 100 µM (inactive)	> 100 µM (inactive)	> 100 µM (inactive)		> 100 µM (inactive)	> 100 µM (inactive)		> 100 µM (inactive)	> 100 µM (inactive)	> 100 µM (inactive)	> 100 µM (inactive)	> 100 µM (inactive)	> 100 µM (inactive)	> 100 µM (inactive)	> 100 µM (inactive)
COc1ccc(OC)c2cc(C3(C)SCCCS3)ccc12	61 µM (inactive)	> 100 µM (inactive)		40.4 µM (inactive)	60.3 µM (inactive)	69.3 µM (inactive)	> 100 µM (inactive)	> 100 µM (inactive)		19.3 µM (inactive)	> 100 µM (inactive)	> 100 µM (inactive)	> 100 µM (inactive)	> 100 µM (inactive)	> 100 µM (inactive)	> 100 µM (inactive)	> 100 µM (inactive)
CC1(C)CCCC2(C)C3C(O)CC2(C)C(O)C31 (stereo unspecified)		> 100 µM (inactive)	> 10 µM (inactive)	> 100 µM (inactive)	> 100 µM (inactive)		> 100 µM (inactive)	> 100 µM (inactive)		> 100 µM (inactive)	> 100 µM (inactive)	> 100 µM (inactive)	> 100 µM (inactive)	> 100 µM (inactive)	> 100 µM (inactive)	> 100 µM (inactive)	> 100 µM (inactive)
O=c1oc2c3ccc4ccccc4c3n(CCCN3CCCCC3)c2c2ccccc12	> 100 µM (inactive)	> 100 µM (inactive)	> 100 µM (inactive)	8.39 µM (inactive)	45.9 µM (inactive)	32.1 µM (inactive)	19.1 µM (inactive)		3.59 µM (inactive)		33.6 µM (inactive)	> 100 µM (inactive)	> 100 µM (inactive)	32.7 µM (inactive)	19.4 µM (inactive)	> 100 µM (inactive)	> 100 µM (inactive)
CCc1c(OC(C)=O)c2c(NC3OCC(OC(C)=O)C(OC(C)=O)C3OC(C)=O)nc(SC)nc2oc1=O (stereo unspecified)	> 100 µM (inactive)	> 100 µM (inactive)	> 100 µM (inactive)	> 100 µM (inactive)	> 100 µM (inactive)	> 100 µM (inactive)		> 100 µM (inactive)		> 100 µM (inactive)	> 100 µM (inactive)	> 100 µM (inactive)	> 100 µM (inactive)	> 100 µM (inactive)	> 100 µM (inactive)	> 100 µM (inactive)	> 100 µM (inactive)
C=C1C(=O)C23CC1CCC2C12CO[C@@H]4OCC(C)(CC[C@@H]1OC3=O)C42 (stereo partly specified)	2.38 µM (inactive)	16.4 µM (inactive)	2.64 µM (inactive)	2.54 µM (inactive)		1.57 µM (inactive)	2.23 µM (inactive)	14.8 µM (inactive)	1.35 µM (inactive)	14 µM (inactive)	4.98 µM (inactive)	6.49 µM (inactive)	15.8 µM (inactive)	2.02 µM (inactive)	7.14 µM (inactive)	11.7 µM (inactive)	9.71 µM (inactive)
Cc1ccc(S(=O)(=O)N/N=C(/CC(=O)c2c(C)[n+]([O-])c3ccccc3[n+]2[O-])C(=O)Nc2ccc(C)c(C)c2)cc1	> 100 µM (inactive)	90.4 µM (inactive)		50.9 µM (inactive)	33 µM (inactive)	29.6 µM (inactive)	> 100 µM (inactive)			28.5 µM (inactive)	87.1 µM (inactive)	16.5 µM (inactive)	88.7 µM (inactive)		> 100 µM (inactive)	79.8 µM (inactive)	> 100 µM (inactive)
COc1ccc(NC(=O)CC/C(CC(=O)C(C)(C)C)=N\NC(=O)C(N)=O)cc1	> 100 µM (inactive)	> 100 µM (inactive)	> 100 µM (inactive)	> 100 µM (inactive)	> 100 µM (inactive)		> 100 µM (inactive)		> 100 µM (inactive)	> 100 µM (inactive)	> 100 µM (inactive)	> 100 µM (inactive)	> 100 µM (inactive)	> 100 µM (inactive)	> 100 µM (inactive)	> 100 µM (inactive)	> 100 µM (inactive)
COc1ccccc1NC(=O)C1=C(C)NC(C)=C(C(=O)Nc2ccccc2OC)C1C1=CC=COC1	4.65 µM (inactive)	12.3 µM (inactive)	25.9 µM (inactive)	4.46 µM (inactive)	30.5 µM (inactive)	13.2 µM (inactive)	18.8 µM (inactive)	5.06 µM (inactive)		9.71 µM (inactive)	13.6 µM (inactive)	3.11 µM (inactive)	36.4 µM (inactive)	14.6 µM (inactive)	12.2 µM (inactive)	3.3 µM (inactive)	25.9 µM (inactive)
COc1ncn(C2C=C(CO)C(O)C2O)c(=O)n1 (stereo unspecified)	< 0.01 µM (active)	> 100 µM (inactive)			> 100 µM (inactive)	> 100 µM (inactive)	> 100 µM (inactive)	> 100 µM (inactive)		> 100 µM (inactive)	> 100 µM (inactive)	> 100 µM (inactive)		> 100 µM (inactive)	> 100 µM (inactive)	> 100 µM (inactive)	> 100 µM (inactive)
O=C1c2ccccc2C2(O)N(c3ccccc3)C(=S)N(c3ccccc3)C12O (stereo unspecified)	> 100 µM (inactive)	> 100 µM (inactive)		> 100 µM (inactive)	> 100 µM (inactive)	> 100 µM (inactive)	> 100 µM (inactive)	> 100 µM (inactive)		> 100 µM (inactive)	> 100 µM (inactive)	> 100 µM (inactive)	> 100 µM (inactive)	> 100 µM (inactive)	> 100 µM (inactive)	> 100 µM (inactive)	92.7 µM (inactive)
CC1(c2cccc(C3CC4(CCC3=O)OCCCCO4)c2)OCCO1 (stereo unspecified)	> 100 µM (inactive)	> 100 µM (inactive)		> 100 µM (inactive)	> 100 µM (inactive)	> 100 µM (inactive)	> 100 µM (inactive)	> 100 µM (inactive)		> 100 µM (inactive)	> 100 µM (inactive)	> 100 µM (inactive)	> 100 µM (inactive)	> 100 µM (inactive)	> 100 µM (inactive)	> 100 µM (inactive)	> 100 µM (inactive)
